Reference: patent publication EP2070549A1, “THERAPEUTIC AGENT FOR ACCELERATION OF SPINAL NERVE REPAIR COMPRISING DESACYL GHRELIN OR DERIVATIVE THEREOF AS ACTIVE INGREDIENT” (University of Miyazaki, priority 2006, dated 2008)
pIC50: −log10 of the molar value.

How the values were obtained:
[1] = test system: des-acyl ghrelin specific binding sites in the membrane fractions of fetal spinal cord; assay: Binding of [125I]-labelled des-acyl ghrelin to membrane fractions of fetal spinal cord (saturation and competition); design: species or system rat; conditions: competition with 0.1 nM labeled des-acyl ghrelin
Procedure: For instance, the identity of a substance that acts on a des-acyl ghrelin specific binding site, namely, the identity of a substance having binding activity for a des-acyl ghrelin specific binding site can be determined, as will be described later in Example 1, by first preparing samples from a tissue of interest (e.g., membrane fractions prepared from an extracted spinal cord tissue), then incubating the sample in the presence of a test substance, with or without an added radioactive ligand such as [^125I]-labeled des-acyl ghrelin, measuring the radioactivity of the samples, and analyzing the values obtained. For analysis of the values, techniques known to skilled artisans may be employed, as exemplified by the method of Scatchard and a program such as GraphPAD Prism 4 program, which are applied to calculate the maximum number of binding sites (Bmax) and the dissociation constant (Kd). The des-acyl ghrelin specific binding sites are yet to be characterized specifically but one place of their occurrence is in rat spinal cord cells, in particular, on rat spinal cord cell membranes. […]
With [^125I]-labelled des-acyl ghrelin used as a radioactive ligand, the binding of des-acyl ghrelin to the tissue membranes of fetal spinal cord was studied. […] The radioactivity of the membranes on the filters was measured with a gamma counter. […]

[2] = test system: cultured fetal spinal neuronal cells; assay: BrdU incorporation into cultured fetal spinal neuronal cells, Cell Proliferation ELISA (Example 2); assay type: cell-based, rat; conditions: 0.03-300 nM tested, 12 hours, then BrdU 6 hours; FIG. 2A
Procedure: • (1) Embryos were extracted from a pregnant Wistar rat at day 17 under anesthesia. Spinal cords were collected from these embryos and subjected to papain digestion in Hank's balanced salt solution; as a result of subsequent mechanical separation by pipetting, a dispersion of fetal spinal neurons was obtained. […] These dispersed cells were suspended in a DMEM medium containing NaHCO3, 5% fetal bovine serum, penicillin (100 U/mL) and streptomycin (100 µg/mL), followed by plating onto laminin-coated 96-well multi-plates at 10^5 cells per well. After incubation for 4 days, des-acyl ghrelin (0.03-300 nM) was added to the culture and incubation was conducted for 12 hours; then, 5-bromo-2'-deoxyuridine (BrdU) ([…]) was added and incubation was conducted for an additional 6 hours; then, the des-acyl ghrelin was investigated for its action on BrdU incorporation.
• (2) After the end of the above incubation, the cells were recovered and using Cell Proliferation ELISA Kit (Roche Diagnostic GmbH, Mannheim, Germany), the amount of BrdU incorporation into the fetal spinal neuronal cells was measured to investigate the action for proliferating the spinal neuronal cells.

[3] = test system: cultured spinal neuronal cells; assay: BrdU incorporation into cultured spinal neuronal cells, Cell Proliferation ELISA (Example 3); assay type: cell-based, rat; conditions: for BrdU incorporation into the cells, Mean: n 6, Control = 100.0
Description: Embryos were extracted from a pregnant Wistar rat at day 16 by opening the abdomen under anesthesia. Spinal cords were collected from these embryos and subjected to papain digestion in Hank's balanced salt solution; as a result of subsequent mechanical separation by pipetting, a dispersion of fetal spinal nerve cells was obtained. After being filtered and centrifuged, the dispersed cells were suspended in a DMEM medium containing NaHCO3, 5% fetal bovine serum, penicillin (100 U/mL) and streptomycin (100 µg/mL), followed by plating onto laminin-coated 96-well multi-plates at 10^5 cells per well. After incubation for 4 days, 5-bromo-2'-deoxyuridine (BrdU) (10 µM) was added and incubation was conducted for 6 hours; further, rat des-acyl ghrelin, des-acyl ghrelin(1-5)-NH2 (GSSFL-NH2, SEQ ID NO:22), des-acyl ghrelin(1-7)-NH2 (GSSFLSP-NH2, SEQ ID NO:23) or des-acyl ghrelin(1-15)-NH2 (GSSFLSPEHQRVQQR-NH2, SEQ ID NO:24) was added in amounts of 0.03 - 3 nM and incubation was conducted for 12 hours before investigating the action of des-acyl ghrelin and its derivatives on BrdU incorporation.
After the end of incubation, the cells were recovered and using Cell Proliferation ELISA Kit (Roche Diagnostic GmbH, Mannheim, Germany), the amount of BrdU incorporation into the cells was measured to investigate the action for proliferating the spinal neuronal cells.

[4] = test system: rat models with injured spinal cord; assay: Grafting of spinal neuronal cells and local administration of des-acyl ghrelin to rat models with injured spinal cord, frequency of standing up; assay type: in vivo; conditions: for frequency of a rat standing up per unit time: 3-minute observation
Procedure: In accordance with the procedure described in Morino, T. et al, Neuroscience Research, 2003, vol. 46, pp 309-318, the grafting of spinal neuronal cells and local administration of des-acyl ghrelin to rat models with injured spinal cord were assessed. Male SD rats (8 to 9 weeks old) were anesthetized with pentobarbital and incised in the back to expose a vertebra ([…]). After excising the vertebral arch, a dental drill was used to open a window with a diameter of […], and a stainless steel needle with a silicone rubber fixed thereto was applied vertically, followed by loading of the top with a 20-g weight. Following a compression time of 30 minutes, a damaging drop equivalent to a weight of about 100 g was finally applied from above to construct models suffering a movement disorder in the lower limbs. The animals were divided into three groups: 1) a group under sham operation; 2) a control group with injured spinal cord; and 3) a group with injured spinal cord, treated by cell grafting, and locally administered with des-acyl ghrelin. The group under sham operation received laminectomy but was simply sutured in the muscle and skin thereafter. After injuring the spinal cord, cultured spinal neuronal cells (10^5 cells/25 µL) were grafted subdurally. Rat des-acyl ghrelin was administered subdurally in an amount of 1 nmol together with the cells.
Twenty-four hours after the operation, the rats were transferred into a see-through cage and observed for the frequency of their standing up (by 3-minute observation). The principal item of observation was the frequency per unit time of the rat standing up (in such a posture that it lifted the upper limbs and supported the body weight only with the lower limbs) was counted to assess the function of its hind limbs.

[5] = test system: cultured fetal spinal neuronal cells; assay: BrdU positive cells by anti-BrdU immunostaining in cultured fetal spinal neuronal cells (Example 2); assay type: cell-based, rat; conditions: compared to physiological saline, FIG. 2B, 2C
Procedure: • (1) Embryos were extracted from a pregnant Wistar rat at day 17 under anesthesia. Spinal cords were collected from these embryos and subjected to papain digestion in Hank's balanced salt solution; as a result of subsequent mechanical separation by pipetting, a dispersion of fetal spinal neurons was obtained. […] These dispersed cells were suspended in a DMEM medium containing NaHCO3, 5% fetal bovine serum, penicillin (100 U/mL) and streptomycin (100 µg/mL), followed by plating onto laminin-coated 96-well multi-plates at 10^5 cells per well. […]
• (3) After the end of the above incubation (1), the cells were fixed with methanol and glacial acetic acid, had their DNA denatured with 2 N HCl; thereafter, the BrdU incorporated into the cells was measured by detecting the BrdU positive cells using a rat anti-BrdU monoclonal antibody (1:1000, Abcam, Cambridge, UK) as a primary antibody, and also using Cy™ 3-conjugated donkey anti-rat IgG polyclonal antibody (1:1000, Jackson ImmunoResearch Laboratories, Inc., PA, USA) as a secondary antibody, in order to investigate the action for proliferating spinal cord cells. […]

[6] = target: des-acyl ghrelin specific binding sites in membrane fractions of rat fetal spinal cord (rat); assay: saturation radioligand binding, rat fetal spinal cord membranes, Scatchard/GraphPAD Prism
[7] = target: des-acyl ghrelin specific binding sites in membrane fractions of rat fetal spinal cord (rat); assay: competition with 0.1 nM [125I]-des-acyl ghrelin on rat fetal spinal cord membranes

Des-acyl ghrelin was tested, and the “concentrations at which the binding of the labeled des-acyl ghrelin was displaced” value [1] was ≥ 10^-3 M, the pIC50 ([1]; 4 °C for an hour) was 7.63 and the “concentration that could increase the BrdU incorporation into the cells” value [2] was ≥ 3 nM. For the same substance, the “BrdU incorporation into the cells (in words)” value ([3]; 0.03 to 3 nM) was “increased”, the “BrdU incorporation into the cells, Mean” value ([3]; Concentration 0.03 nM) was 113.6 and the “BrdU incorporation into the cells, Mean” value ([3]; Concentration 0.3 nM) was 112.6. For the same substance, the “BrdU incorporation into the cells, Mean” value ([3]; Concentration 3 nM) was 108.2, the “frequency of a rat standing up per unit time” value ([4]; 24 hours after operation, 1 nmol subdurally together with grafted cells (10^5 cells/25 µL)) was 8.0 ± 0.0 and the “frequency of a rat standing up per unit time” value ([4]; Initial (before operation)) was 15.0 ± 2.0. For the same substance, the “frequency of standing up (in words)” value ([4]; combination of cell grafting and local administration, 24 hours after operation) was “recovery”, the BrdU incorporation [5] was “increased” and the “number of cells that incorporated BrdU” value [5] was “increased”.

“[^125I]-labelled des-acyl ghrelin (peptide)” showed a Bmax (fmol/mg protein) [6] of 8.79.

unlabelled des-acyl ghrelin (peptide) showed a pIC50 [7] of 7.63.
